Patent US20220323594A1, “LIPIDATED CATIONIC PEPTIDE-PEG COMPOSITIONS FOR NUCLEIC ACID DELIVERY” (NUTCRACKER THERAPEUTICS, INC., priority 2019, published 2022)

What was measured:
[1] = MTT viability assay after treatment with Fluc mRNA/amino lipidated peptoid formulations; type: cell-based; conditions: human, HeLa cells
Description: Cellular viability was measured following treatment with Fluc mRNA/amino lipidated peptoid formulations by a traditional MTT viability assay. […] In this assay, cells were first treated with peptoid formulations at a final mRNA concentration of 100 ng/well for 8 hours. Cells were then left to grow for 48 hours, after which time they were exposed to 1.5 mg/mL 3-(4,5-dimethylthiazol-2-yl)-2,5-diphenyltetrazolium bromide (MTT) for 2 hours, then lysed using a solubilizing solution of 10% Triton-X 100 in acidic isopropanol (0.1N HCl). The signal corresponding to reduced formazan was normalized to untreated cells to provide a relative viability of each treated condition. […] In general, nearly all conditions maintained at least 80% viability with the only exceptions being formulations of compound 5, 34, and 35.

[2] = mRNA encapsulation by fluorescence of Qubit RNA HS dye before and after lysis with Triton X-100; type: physicochemical; conditions: percentage of mRNA encapsulation; Fluc mRNA/peptoid formulation, 5:1 mass ratio
Description: The exemplary amino lipidated cationic peptoids described in Example 2 were combined with firefly luciferase (Fluc) mRNA to form nanoparticle compositions to be evaluated for therapeutic and/or prophylactic purposes in vitro or in vivo. The formulations were prepared according to the protocol of Example 3 and mixed by simple pipetting. The mRNA/peptoid formulation at a 5:1 mass ratio of peptoid:cargo were evaluated by dynamic light scattering (DLS) in order to determine the volume average particle size/diameter (nm) of the mRNA/peptoid complex and the size polydispersity index (PDI) within the formulation. The percentage of mRNA encapsulation for each formulation of the exemplary compounds were determined by fluorescence of the Qubit RNA HS (Invitrogen) dye before and after lysis of particles by Triton X-100.

HeLa cells [3] = assay: In vitro expression of firefly luciferase (Fluc) after treatment with Fluc mRNA/amino lipidated peptoid formulations, no PEG or 2% DMG-PEG2000; type: cell-based
Description: The efficacy of mRNA/amino lipidated peptoid formulations was evaluated in vitro based on their ability to deliver the firefly luciferase (Fluc) reporter gene to cultured cells. Amino lipidated peptoids were combined with Fluc mRNA at a 5:1 w/w ratio, and the resulting particles were added to cultured HeLa cells at a dose of 100 ng/well (in 100 μL total volume). The resulting luciferase expression (RLU) was measured by a luminescence plate reader after 6 hours and 24 hours of treatment. […] In addition to evaluating nanoparticle complexes formed between mRNA cargos and amino lipidated peptoids alone, multicomponent formulations containing a small amount of PEG-lipid DMG-PEG2000 were also tested for in vitro Fluc mRNA delivery. In these formulations, DMG-PEG2000 was pre-mixed with candidate peptoid at an overall 2% incorporation (w/w), while maintaining the same 5:1 mass ratio of peptoid:mRNA used previously.

HeLa cells [4] = assay: In vitro Fluc expression with variable peptoid:mRNA mass ratio, 2% DMG-PEG2000; type: cell-based; conditions: 24 h; for Observed Luciferase Expression (RLU) for Given Formulation Mass Ratio 2:1: 2% (w/w) DMG-PEG2000, peptoid:mRNA 2:1; for Observed Luciferase Expression (RLU) for Given Formulation Mass Ratio 3.5:1: 2% (w/w) DMG-PEG2000, peptoid:mRNA 3.5:1; for Observed Luciferase Expression (RLU) for Given Formulation Mass Ratio 5:1: 2% (w/w) DMG-PEG2000, peptoid:mRNA 5:1; for Observed Luciferase Expression (RLU) for Given Formulation Mass Ratio 7.5:1: 2% (w/w) DMG-PEG2000, peptoid:mRNA 7.5:1
Description: The charge ratio dependence of amino lipidated peptoid delivery vehicles was evaluated by formulating particles between Fluc mRNA and delivery vehicles at varying mass ratios. Formulations were varied between 2:1 and 7.5:1 peptoid:mRNA (w/w) ratios (2:1, 3.5:1, 5:1 and 7.5:1). In addition, the role of DMG-PEG2000 was also explored with the mass ratios, either by excluding DMG-PEG2000 or incorporating DMG-PEG2000 at 2% (w/w) relative to amino lipidated peptoid. Fluc expression from these formulations was measured in HeLa cells following treatment for 24 hours. […] FIGS. 6B and 6C show plots of the average bioluminescence (RLU) for HeLa cells treated with the formulations of exemplary amino lipidated cationic peptoid compounds 1-36, all formulated with 2% w/w DMG-PEG2000.

[5] = no PEG, peptoid:Fluc mRNA 5:1 w/w, 100 ng/well, 6 h of treatment
[6] = no PEG, peptoid:Fluc mRNA 5:1 w/w, 100 ng/well, 24 h of treatment
[7] = with 2% (w/w) DMG-PEG2000, peptoid:mRNA 5:1, 6 h after treatment
[8] = with 2% (w/w) DMG-PEG2000, peptoid:mRNA 5:1, 24 h after treatment

Structure (SMILES) | viability at 8 h, 500 ng/well ([1]; Relative Viability (%) 2% PEG) | viability at 8 h, 500 ng/well ([1]; Relative Viability (%) No PEG) | also measured
CCCCCCCCCCN(CC(N)=O)C(=O)CN(CCCCCCCCCC)C(=O)CN(CCCCCCCCCC)C(=O)CN(CCCCCCCCCC)C(=O)CN(CCc1ccccc1)C(=O)CN(CCc1ccccc1)C(=O)CN(CC1CCCN1)C(=O)CN(CCc1ccccc1)C(=O)CN(CCc1ccccc1)C(=O)CN(CC1CCCN1)C(=O)CN(CCc1ccccc1)C(=O)CN(CCc1ccccc1)C(=O)CN(CC1CCCN1)C(=O)CN(CCc1ccccc1)C(=O)CN(CCc1ccccc1)C(=O)CNCC1CCCN1 (stereo not shown) [Compound 35] | 105% | 74.8% | viability at 8 h, 500 ng/well ([1]; viability): < 80%
CCCCCCCCCCN(CC(N)=O)C(=O)CN(CCCCCCCCCC)C(=O)CN(CCCCCCCCCC)C(=O)CN(CCCCCCCCCC)C(=O)CN(CCc1ccccc1)C(=O)CN(CCc1ccccc1)C(=O)CN(CC1CCCN1)C(=O)CN(CCc1ccccc1)C(=O)CN(CCc1ccccc1)C(=O)CN(CC1CCCN1)C(=O)CN(CCc1ccccc1)C(=O)CN(CCc1ccccc1)C(=O)CNCC1CCCN1 (stereo not shown) [Compound 34] | 106% | 67.6% | viability at 8 h, 500 ng/well ([1]; viability): < 80%
CCCCCCCCCCN(CC(N)=O)C(=O)CN(CCCCCCCCCC)C(=O)CN(CCc1ccccc1)C(=O)CN(CCc1ccccc1)C(=O)CN(CCN)C(=O)CN(CCc1ccccc1)C(=O)CN(CCc1ccccc1)C(=O)CN(CCN)C(=O)CN(CCc1ccccc1)C(=O)CN(CCc1ccccc1)C(=O)CN(CCN)C(=O)CN(CCc1ccccc1)C(=O)CN(CCc1ccccc1)C(=O)CN(CCN)C(=O)CN(CCc1ccccc1)C(=O)CN(CCc1ccccc1)C(=O)CNCCN [Compound 12] | 104% | 98.5% | –
CCCCCCCCCCN(CC(N)=O)C(=O)CN(CCCCCCCCCC)C(=O)CN(CCCCCCCCCC)C(=O)CN(CCCCCCCCCC)C(=O)CN(CCc1ccccc1)C(=O)CN(CCc1ccccc1)C(=O)CN(CCNC)C(=O)CN(CCc1ccccc1)C(=O)CN(CCc1ccccc1)C(=O)CN(CCNC)C(=O)CN(CCc1ccccc1)C(=O)CN(CCc1ccccc1)C(=O)CN(CCNC)C(=O)CN(CCc1ccccc1)C(=O)CN(CCc1ccccc1)C(=O)CNCCNC [Compound 26] | 91.9% | 98.8% | % Encapsulation [2]: 35.7%; Luciferase Expression (RLU) 6 h (HeLa cells [3]; [5]): 5.00E+00 RLU; Luciferase Expression (RLU) 24 h (HeLa cells [3]; [6]): 1.07E+01 RLU; Luciferase Expression (RLU) 6 h (HeLa cells [3]; [7]): 5.85E+02 RLU; Luciferase Expression (RLU) 24 h (HeLa cells [3]; [8]): 6.45E+02 RLU; Observed Luciferase Expression (RLU) for Given Formulation Mass Ratio 2:1 (HeLa cells [4]): 4.91E+02 RLU; Observed Luciferase Expression (RLU) for Given Formulation Mass Ratio 3.5:1 (HeLa cells [4]): 3.93E+03 RLU; Observed Luciferase Expression (RLU) for Given Formulation Mass Ratio 5:1 (HeLa cells [4]): 6.06E+03 RLU; Observed Luciferase Expression (RLU) for Given Formulation Mass Ratio 7.5:1 (HeLa cells [4]): 3.19E+03 RLU
CCCCCCCCCCN(CC(N)=O)C(=O)CN(CCCCCCCCCC)C(=O)CN(CCCCCCCCCC)C(=O)CN(CCCCCCCCCC)C(=O)CN(CCCCCCCCCC)C(=O)CN(CCc1ccccc1)C(=O)CN(CCc1ccccc1)C(=O)CN(CCN)C(=O)CN(CCc1ccccc1)C(=O)CN(CCc1ccccc1)C(=O)CN(CCN)C(=O)CN(CCc1ccccc1)C(=O)CN(CCc1ccccc1)C(=O)CNCCN [Compound 19] | 94.8% | 87.1% | –
CCCCCCCCCCN(CC(N)=O)C(=O)CN(CCCCCCCCCC)C(=O)CN(CCCCCCCCCC)C(=O)CN(CCCCCCCCCC)C(=O)CN(CCc1ccccc1)C(=O)CN(CCc1ccccc1)C(=O)CN(CCN)C(=O)CN(CCc1ccccc1)C(=O)CN(CCc1ccccc1)C(=O)CN(CCN)C(=O)CN(CCc1ccccc1)C(=O)CN(CCc1ccccc1)C(=O)CNCCN [Compound 8] | 97.3% | 92% | –
CCCCCCCCCCN(CC(=O)N(CC(=O)N(CCCCCCCCCC)CC(=O)N(CC(N)=O)CC(CC)CCCC)CC(CC)CCCC)C(=O)CN(CCc1ccccc1)C(=O)CN(CCc1ccccc1)C(=O)CN(CCN)C(=O)CN(CCc1ccccc1)C(=O)CN(CCc1ccccc1)C(=O)CN(CCN)C(=O)CN(CCc1ccccc1)C(=O)CN(CCc1ccccc1)C(=O)CNCCN (stereo not shown) [Compound 24] | 112% | 92% | –
CCCCCCCCCCN(CC(N)=O)C(=O)CN(CCCCCCCCCC)C(=O)CN(CCCCCCCCCC)C(=O)CN(CCCCCCCCCC)C(=O)CN(CCCCCCCCCC)C(=O)CN(CCCCCCCCCC)C(=O)CN(CCCCCCCCCC)C(=O)CN(CCc1ccccc1)C(=O)CN(CCc1ccccc1)C(=O)CN(CCN)C(=O)CN(CCc1ccccc1)C(=O)CN(CCc1ccccc1)C(=O)CN(CCN)C(=O)CN(CCc1ccccc1)C(=O)CN(CCc1ccccc1)C(=O)CNCCN [Compound 23] | 118% | 108% | % Encapsulation [2]: 3.9%; Luciferase Expression (RLU) 6 h (HeLa cells [3]; [5]): 5.60E+01 RLU; Luciferase Expression (RLU) 24 h (HeLa cells [3]; [6]): 9.47E+01 RLU; Luciferase Expression (RLU) 6 h (HeLa cells [3]; [7]): 2.53E+01 RLU; Luciferase Expression (RLU) 24 h (HeLa cells [3]; [8]): 2.13E+01 RLU; Observed Luciferase Expression (RLU) for Given Formulation Mass Ratio 2:1 (HeLa cells [4]): 5.47E+01 RLU; Observed Luciferase Expression (RLU) for Given Formulation Mass Ratio 3.5:1 (HeLa cells [4]): 1.42E+02 RLU; Observed Luciferase Expression (RLU) for Given Formulation Mass Ratio 5:1 (HeLa cells [4]): 2.07E+02 RLU; Observed Luciferase Expression (RLU) for Given Formulation Mass Ratio 7.5:1 (HeLa cells [4]): 1.55E+02 RLU
CCCCCCCCCCN(CC(N)=O)C(=O)CN(CCCCCCCCCC)C(=O)CN(CCCCCCCCCC)C(=O)CN(CCCCCCCCCC)C(=O)CN(CCc1ccccc1)C(=O)CN(CCc1ccccc1)C(=O)CN(CCCN)C(=O)CN(CCc1ccccc1)C(=O)CN(CCc1ccccc1)C(=O)CN(CCCN)C(=O)CN(CCc1ccccc1)C(=O)CN(CCc1ccccc1)C(=O)CN(CCCN)C(=O)CN(CCc1ccccc1)C(=O)CN(CCc1ccccc1)C(=O)CNCCCN [Compound 29] | 94% | 85.9% | –
CCCCCCCCCCN(CC(N)=O)C(=O)CN(CCCCCCCCCC)C(=O)CN(CCCCCCCCCC)C(=O)CN(CCCCCCCCCC)C(=O)CN(CCCCCCCCCC)C(=O)CN(CCc1ccccc1)C(=O)CN(CCc1ccccc1)C(=O)CN(CCN)C(=O)CN(CCc1ccccc1)C(=O)CN(CCc1ccccc1)C(=O)CN(CCN)C(=O)CN(CCc1ccccc1)C(=O)CN(CCc1ccccc1)C(=O)CN(CCN)C(=O)CN(CCc1ccccc1)C(=O)CN(CCc1ccccc1)C(=O)CNCCN [Compound 21] | 109% | 91.3% | –
